{"source": "ChEMBL document CHEMBL1129386", "about": "“Synthesis and immunostimulating properties of lipophilic ester and ether muramyl peptide derivatives” (J Med Chem, 1996)", "test_system": "RAW264.7", "assay": "Concentration of compound which increased the nitrite production in RAW 264.7 mouse monocyte-macrophage line", "assay_type": "functional, cell-based", "data": [{"smiles": "CC(=O)N[C@@H]1[C@@H](OC(C)C(=O)N[C@@H](C)C(=O)N[C@H](CCC(=O)N[C@@H](C)C(=O)O[C@H]2CC[C@@]3(C)C(=CC[C@H]4[C@@H]5CC[C@H]([C@H](C)CCCC(C)C)[C@@]5(C)CC[C@@H]43)C2)C(N)=O)[C@H](O)[C@@H](CO)O[C@@H]1O", "note": "(stereo partly specified)", "values": [{"measurement": "Concentration", "value": 1, "unit": "µM"}]}]}
